Measurements as given in patent US20030204875A1, “Novel agrobacterium-mediated plant transformation method” (priority 1999, published 2003).
Like-named read-outs stand apart in the source and are kept apart here.

Tests used:
[1] = system: T-DNA transfer to BMS cells
Procedure: Transformation of BMS suspension cells was performed following the protocol described in Table 8. For transforming kalanchoe leaves, a suspension of cells from Agrobacterium strain A281 was applied after performing mechanical wounding as described in White and Nester. The Agrobacterium strain, A136 harboring a binary vector pMON25457 (FIG. 3) was used as a negative control.
The efficiency of T-DNA delivery to BMS cells was measured by transient GUS expression post co-cultivtion as well as by staining GUS positive colonies appearing on a single piece of filter 4 weeks after co-culture.
During pre-induction, AgNO3 was added at two different levels (20 ? M and 40 ? M final concentration) to the pre-induction medium. The final optical density prior to the induction was adjusted to A660 (OD 0.2). Agrobacterium cells were pre-induced for 15 hours. Measurement of the optical density (measure of growth) was taken at the end of pre-induction, just prior to transformation. Agrobacterium cells pre-induced in the absence of AgNO3 were used as a control.

[2] = system: IE-derived callus, genotype (H99×Pa 91)A188; settings: 50 μM in co-culture medium; three weeks after the transformation
Procedure: (§1) Immature embryos of genotype (H99×Pa 91)A188 were isolated as described. […] The Agrobacterium strain was pre-induced as described. The inoculation was performed using a concentration of A660 OD 4.0 for 15 minutes as described. Post inoculation, Agrobacterium suspension was removed and embryos were placed on different semi-solid co-culture media supplemented with various bacteriocidal compounds. All the tissues were incubated for three days in the dark. The transformation protocol followed was as described previously (corn IE transformation) except that the 1st selection with 50 mg/L Paromomycin was replaced with 25 mg/L Paromomycin for 2 weeks and 50 mg/L Paromomycin for 2 additional weeks. Transformation efficiency was calculated based on the number of embryos producing nptII positive plants as determined by a leaf bleach assay as described earlier. Three weeks after the transformation, the quality and growth characteristics of IE-derived callus co-cultured in the presence of different growth inhibiting agents.

[3] = system: Agrobacterium tumefaciens strain C58 (ABI)
Procedure: Disarmed Agrobacterium tumefaciens strain C58 (ABI) harboring binary vector pMON18365 (FIG. 2) was used in this Example. The Agrobacterium strain was pre-induced as described previously.
Three mls of pre-induced Agrobacterium suspension (A660 OD 1.0) was added to a 6-well tissue culture plate. After adding the explants, the plant tissues and Agrobacterium suspension cells were subjected to vacuum infiltration for three hours. After the three hour vacuum infiltration, the Agrobacterium suspension was removed and the plant tissues were placed on semi-solid medium containing 10 ? M AgNO3 (final concentration). All the tissues were incubated for three days in the dark.
All explants were transferred to the medium without the growth inhibiting agent and evaluation of Agrobacterium growth was observed seven days post-transfer.

[4] = system: immature embryos of genotype H99×A188; settings: observed 2 weeks post transfer to delay medium
Procedure: (§2) Immature embryos of genotype H99×A188 were isolated as described above. The disarmed Agrobacterium strain ABI harboring binary vector pMON18365 (FIG. 2) was used. The Agrobacterium strain was pre-induced as described above and three mls of pre-induced Agrobacterium suspension (A660 OD 4.0) was added to a 6-well tissue culture plate as described earlier. The inoculation was performed for three hours under vacuum. The Agrobacterium suspension was removed and embryos were placed on respective semi-solid medium containing various concentrations of AgNO3 (0, 10, 20, 40, 60 ? M AgNO3 final concentration). All the tissues were incubated for three days in the dark. The efficiency of T-DNA delivery was estimated by a transient GUS analysis performed three days after co-culture by counting the number of GUS foci per immature embryo explant (Table 21). Efficiency of culture response was determined by transferring the embryos to a delay medium (D medium, supplemented with 500 mg/L Carbenicillin) and taking observation 2 weeks post transfer.

[5] = system: T-DNA transfer to immature embryos of genotype H99×A188; settings: for Average number of GUS foci/explant: three days
Procedure: as §2

[6] = system: immature embryos of genotype (H99×Pa 91)A188; test: Transformation efficiency of corn with different growth inhibiting agents during co-culture; type: cell-based; settings: three days, OD 4.0
Procedure: b) Biological assay (leaf bleach assay). Leaf samples (a leaf punch) from approximately 2-week-old seedlings were placed in wells of 24-well cell culture clusters (Costar Corporation, Cambridge, Mass.). Each well was filled with 0.5 ml aqueous solution composed of 300 mg/L paromomycin (Sigma) and 100 mg/L Benlate (a fungicide made by Du Pont), 100 mg/IL Benlate alone was used as a control. Three leaf samples from the same leaf of each plant were placed in two wells containing paromomycin plus Benlate and one well containing Benlate alone, respectively. Leaf samples from non-transformed plants were used as negative controls. The samples were vacuum-infiltrated in a dessicator using an in-house vacuum system for 5 min and then the clusters were sealed tightly with parafilm before being placed under light (140 μMol m-2s-1). The results were determined after 60 hours.
as §1

[7] = system: T-DNA delivery to immature embryos of corn genotype H99×A188; settings: co-culture with 10 μM AgNO3, three days
Procedure: The Agrobacterium strain was pre-induced as described previously and three mls of pre-induced Agrobacterium suspension (A660 OD 1.0, 2.0, 3.0 and 4.0) was used. After adding the explants the Agrobacterium suspension cells, the inoculation was performed for 15 minutes. The Agrobacterium suspension was removed and embryos were placed on 1/2 MS corn co-culture medium supplemented with 10 ? M AgNO3 (final concentration). The co-culture duration was for three days in the dark. The efficiency of T-NA delivery was estimated by a transient GUS analysis three days after co-culture by incubating embryos directly in GUS staining buffer for 12-15 hours and counting the number of GUS foci per immature embryo explant (Table 20).

[8] = EHA 101:pMON25457 pre-induced with 20 μM AgNO3
[9] = EHA 101:pMON25457 pre-induced with 40 μM AgNO3
[10] = 10 μM AgNO3 in co-culture medium
[11] = 20 μM AgNO3 in co-culture medium
[12] = 40 μM AgNO3 in co-culture medium
[13] = 60 μM AgNO3 in co-culture medium

`O=[N+]([O-])[O-].[Ag+]` [AgNO3, silver nitrate] was tested, and the Stable transformants obtained ([1]; Agrobacterium cells treated with AgNO3 during pre-induction) was “no stable transformants”, the “Average # of GUS positive colonies/filter paper” value [1, 8] was 0 and the “Results (T-DNA transfer)” value [1, 8] was “no transfer”. For the same compound, the “Average # of GUS positive colonies/filter paper” value [1, 9] was 0, the “Results (T-DNA transfer)” value [1, 9] was “no transfer” and the “Culture response (callus quality) on co-culture media” value [2] was “embryogenically the most competent callus”. The “Growth of Agrobacterium cells surrounding explants” value ([3]; co-culture medium with 10 μM AgNO3, three days) was “No growth”, the “Growth of Agrobacterium cells surrounding explants after transfer to medium without the agent” value ([3]; seven days post-transfer, after three days on 10 μM AgNO3) was “Profuse growth” and the “% of immature embryos responding to culture” value [4, 10] was 42%. For the same compound, the “% of immature embryos responding to culture” value [4, 11] was 64%, the “% of immature embryos responding to culture” value [4, 12] was 62% and the “% of immature embryos responding to culture” value [4, 13] was 60%. For the same compound, the “Effect on frequency of T-DNA transfer and tissue survival” value ([5]; 10 μM AgNO3 during co-culture) was “positive effect”, the “Average number of GUS foci/explant” value [5, 10] was 63 and the “Average number of GUS foci/explant” value [5, 11] was 26. For the same compound, the “Average number of GUS foci/explant” value [5, 12] was 28, the “Effect on T-DNA transfer” value ([5]; 60 μM AgNO3 during co-culture) was “inhibitory” and the “Average number of GUS foci/explant” value [5, 13] was 12. For the same compound, the “% Transformation” value ([6]; 20 μM in co-culture medium) was 16%, the “% Transformation” value ([6]; 50 μM in co-culture medium) was 6.3% and the “Average number of GUS foci/explant” value ([7]; OD660 1.0, Pre-induced) was 7. The “Average number of GUS foci/explant” value ([7]; OD660 2.0, Not pre-induced (grown in LB)) was 2, the “Average number of GUS foci/explant” value ([7]; OD660 2.0, Pre-induced) was 28 and the “Average number of GUS foci/explant” value ([7]; OD660 3.0, Pre-induced) was 39. For the same compound, the “Average number of GUS foci/explant” value ([7]; OD660 4.0, Not pre-induced (grown in LB)) was under 1 and the “Average number of GUS foci/explant” value ([7]; OD660 4.0, Pre-induced) was 66.
